Experimental data as given in PubChem BioAssay AID248 (DTP/NCI, 2004).
Where “and” joins values, the source holds several entries; their conditions need not be identical. Identical values can stand only once. Inconclusive results and toxic doses are left out. Rule as the data show it: active = T/C of 150% or more; inactive = T/C below 125%.

Tested on: L1210 leukemia ip in BDF1 mice, survival T/C
Experiment: NCI In Vivo Anticancer Drug Screen. Data for tumor model L1210 Leukemia (intraperitoneal) in B6D2F1 (BDF1) mice
Conditions: endpoint: mean survival time, higher = longer survival
Procedure, shortened: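 Read-out is survival time, reported as the treated-group measurement over the vehicle-control measurement.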

[1] = dose: 100.0 mg/kg/injection, schedule: Q01DX009 (ip), vehicle: Klucel (hydroxypropylcellulose) (HPC)
[2] = dose: 100.0 mg/kg/injection, schedule: Q04DX003 (ip), vehicle: Klucel (hydroxypropylcellulose) (HPC)
[3] = dose: 200.0 mg/kg/injection, schedule: Q01DX009 (ip), vehicle: Klucel (hydroxypropylcellulose) (HPC)
[4] = dose: 200.0 mg/kg/injection, schedule: Q04DX003 (ip), vehicle: Klucel (hydroxypropylcellulose) (HPC)
[5] = dose: 400.0 mg/kg/injection, schedule: Q01DX009 (ip), vehicle: Klucel (hydroxypropylcellulose) (HPC)
[6] = dose: 400.0 mg/kg/injection, schedule: Q04DX003 (ip), vehicle: Klucel (hydroxypropylcellulose) (HPC)
[7] = dose: 100.0 mg/kg/injection, schedule: Q01DX001 (ip), vehicle: saline
[8] = dose: 200.0 mg/kg/injection, schedule: Q01DX001 (ip), vehicle: saline
[9] = dose: 400.0 mg/kg/injection, schedule: Q01DX001 (ip), vehicle: saline
[10] = dose: 100.0 mg/kg/injection, schedule: Q01DX001 (ip), vehicle: carboxymethylcellulose (CMC)
[11] = dose: 100.0 mg/kg/injection, schedule: Q04DX003 (ip), vehicle: saline
[12] = dose: 200.0 mg/kg/injection, schedule: Q01DX001 (ip), vehicle: carboxymethylcellulose (CMC)
[13] = dose: 200.0 mg/kg/injection, schedule: Q04DX003 (ip), vehicle: saline
[14] = dose: 400.0 mg/kg/injection, schedule: Q01DX001 (ip), vehicle: carboxymethylcellulose (CMC)
[15] = dose: 400.0 mg/kg/injection, schedule: Q04DX003 (ip), vehicle: saline
[16] = dose: 100.0 mg/kg/injection, schedule: Q01DX001 (ip), vehicle: saline with Tween-80
[17] = dose: 200.0 mg/kg/injection, schedule: Q01DX001 (ip), vehicle: saline with Tween-80
[18] = dose: 100.0 mg/kg/injection, schedule: Q04DX002 (ip), vehicle: Klucel (hydroxypropylcellulose) (HPC)
[19] = dose: 200.0 mg/kg/injection, schedule: Q04DX002 (ip), vehicle: Klucel (hydroxypropylcellulose) (HPC)

Measured: T/C

O=C1C=CC(=O)N1
inactive: dose: 0.62 mg/kg/injection, schedule: Q01DX009 (ip), vehicle: saline 90 % of control | dose: 1.25 mg/kg/injection, schedule: Q01DX009 (ip), vehicle: saline 93 % of control | dose: 1.25 mg/kg/injection, schedule: Q04DX003 (ip), vehicle: saline 92 % of control | dose: 2.5 mg/kg/injection, schedule: Q01DX009 (ip), vehicle: saline 90 % of control | dose: 2.5 mg/kg/injection, schedule: Q04DX003 (ip), vehicle: saline 96 % of control | dose: 3.74 mg/kg/injection, schedule: Q01DX009 (ip), vehicle: saline with Tween-80 96 % of control | dose: 5.0 mg/kg/injection, schedule: Q01DX001 (ip), vehicle: acetone 95 % of control

CCOC(=O)NNC(N)=S
inactive: [1] 102 % of control | [2] 103 % of control | [3] 97 % of control | [4] 94 % of control | [5] 98 % of control | [6] 100 % of control

Cc1cc(C)n(CO)n1
inactive: [1] 107 % of control | [2] 100 % of control | [3] 108 % of control | [4] 110 % of control | [6] 112 % of control

O=[N+]([O-])C1C(O)CCCC1O (stereo not given)
inactive: [7] 102 % of control | [8] 102 % of control | [9] 105 % of control

Oc1ccc(C2N(c3ccccc3)CCN2c2ccccc2)cc1
inactive: dose: 100.0 mg/kg/injection, schedule: Q01DX009 (ip), vehicle: saline with Tween-80 111 % of control | dose: 100.0 mg/kg/injection, schedule: Q04DX003 (ip), vehicle: saline with Tween-80 92 % of control | dose: 200.0 mg/kg/injection, schedule: Q01DX009 (ip), vehicle: saline with Tween-80 103 % of control | dose: 200.0 mg/kg/injection, schedule: Q04DX003 (ip), vehicle: saline with Tween-80 97 % of control | dose: 400.0 mg/kg/injection, schedule: Q01DX009 (ip), vehicle: saline with Tween-80 89 % of control | dose: 400.0 mg/kg/injection, schedule: Q04DX003 (ip), vehicle: saline with Tween-80 101 % of control

CS(=O)(=O)CS(C)(=O)=O
inactive: [10] 93 % of control | [1] 94 % of control | [11] 94 % of control | [12] 93 % of control | [3] 105 % of control | [13] 98 % of control | [14] 110 % of control | [5] 101 % of control | [15] 93 % of control

COc1ccc2c3c1OC1C(O)CCC4C(C2)N(C)CCC341 (stereo not given)
inactive: dose: 75.0 mg/kg/injection, schedule: Q01DX001 (ip), vehicle: saline 92 % of control | [16] 102 % of control | dose: 150.0 mg/kg/injection, schedule: Q01DX001 (ip), vehicle: saline 94 % of control | [17] 102 % of control | dose: 300.0 mg/kg/injection, schedule: Q01DX001 (ip), vehicle: saline 101 % of control

Nc1c(Cl)c(Cl)c2c(c1Cl)C(=O)c1cc(Cl)ccc1-2
inactive: [10] 97 % of control | [12] 108 % of control | [14] 105 % of control

Nc1ccc(S(=O)(=O)Nc2ncccn2)cc1
inactive: [7] 96 % of control | [18] 103 % of control | [8] 97 % of control | [19] 92 % of control | [9] 103 % of control | dose: 400.0 mg/kg/injection, schedule: Q04DX002 (ip), vehicle: Klucel (hydroxypropylcellulose) (HPC) 103 % of control

CCC(C)c1ccc(O)c(CN(CCO)CCO)c1 (stereo not given)
inactive: [7] 105 % of control | [8] 101 % of control

COc1ccc([N+](=O)[O-])cc1NC(=O)Nc1ccc(SC)cc1
inactive: dose: 50.0 mg/kg/injection, schedule: Q01DX009 (ip), vehicle: Klucel (hydroxypropylcellulose) (HPC) 90 % of control | [1] 89 % of control | [3] 90 % of control and 92 % of control | [5] 98 % of control

CCS(=O)(=O)C1CCC1OC(C)(C)C (stereo not given)
inactive: [7] 108 % of control | [8] 108 % of control | [9] 102 % of control

COc1cc2oc(C)c(C)c2cc1/C=C\[N+](=O)[O-]
inactive: dose: 50.0 mg/kg/injection, schedule: Q04DX002 (ip), vehicle: Klucel (hydroxypropylcellulose) (HPC) 96 % of control | [1] 93 % of control | [18] 93 % of control | [3] 98 % of control | [19] 96 % of control | [5] 100 % of control

COc1ccc(C(=C2CCCCC2)c2ccc(OC)cc2)cc1
inactive: [16] 95 % of control | [17] 94 % of control | dose: 400.0 mg/kg/injection, schedule: Q01DX001 (ip), vehicle: saline with Tween-80 88 % of control

N/C(=N\Nc1ccccc1)N[N+](=O)[O-]
inactive: dose: 175.0 mg/kg/injection, schedule: Q01DX001 (ip), vehicle: acetone 100 % of control | dose: 265.0 mg/kg/injection, schedule: Q01DX001 (ip), vehicle: acetone 96 % of control | dose: 400.0 mg/kg/injection, schedule: Q01DX001 (ip), vehicle: acetone 94 % of control | dose: 600.0 mg/kg/injection, schedule: Q01DX001 (ip), vehicle: acetone 104 % of control

COc1ccc(NC(=O)Nc2c(C)cc(C)cc2C)cc1
inactive: dose: 100.0 mg/kg/injection, schedule: Q01DX009 (ip), vehicle: gum acacia 94 % of control | dose: 100.0 mg/kg/injection, schedule: Q04DX003 (ip), vehicle: gum acacia 93 % of control | dose: 200.0 mg/kg/injection, schedule: Q01DX009 (ip), vehicle: gum acacia 96 % of control | dose: 200.0 mg/kg/injection, schedule: Q04DX003 (ip), vehicle: gum acacia 95 % of control | dose: 400.0 mg/kg/injection, schedule: Q01DX009 (ip), vehicle: gum acacia 98 % of control | dose: 400.0 mg/kg/injection, schedule: Q04DX003 (ip), vehicle: gum acacia 87 % of control

CC(=O)NNC(=O)C1CCCCN1 (stereo not given)
inactive: dose: 100.0 mg/kg/injection, schedule: Q01DX001 (ip), vehicle: water 101 % of control | dose: 200.0 mg/kg/injection, schedule: Q01DX001 (ip), vehicle: water 100 % of control | dose: 400.0 mg/kg/injection, schedule: Q01DX001 (ip), vehicle: water 103 % of control

CN(C)/C(N)=N/N
inactive: dose: 15.0 mg/kg/injection, schedule: Q01DX Z (ip), vehicle: methylcellulose (MC) 113 % of control | dose: 30.0 mg/kg/injection, schedule: Q01DX Z (ip), vehicle: methylcellulose (MC) 109 % of control | dose: 60.0 mg/kg/injection, schedule: Q01DX Z (ip), vehicle: methylcellulose (MC) 100 % of control | dose: 120.0 mg/kg/injection, schedule: Q01DX Z (ip), vehicle: methylcellulose (MC) 103 % of control | dose: 125.0 mg/kg/injection, schedule: Q01DX Z (oral), vehicle: methylcellulose (MC) 90 % of control | dose: 240.0 mg/kg/injection, schedule: Q01DX Z (ip), vehicle: methylcellulose (MC) 101 % of control | dose: 250.0 mg/kg/injection, schedule: Q01DX Z (oral), vehicle: methylcellulose (MC) 101 % of control | dose: 375.0 mg/kg/injection, schedule: Q01DX Z (ip), vehicle: methylcellulose (MC) 110 % of control | dose: 480.0 mg/kg/injection, schedule: Q01DX Z (ip), vehicle: methylcellulose (MC) 107 % of control

COC(=O)CNc1ccc(O)cc1
inactive: dose: 100.0 mg/kg/injection, schedule: Q04DX003 (ip), vehicle: other 102 % of control | dose: 200.0 mg/kg/injection, schedule: Q04DX003 (ip), vehicle: other 94 % of control | dose: 400.0 mg/kg/injection, schedule: Q04DX003 (ip), vehicle: other 88 % of control

CCOC(=O)c1ccc(NC(=O)Nc2cc(Cl)c(OC)cc2OC)cc1
inactive: [1] 98 % of control | [3] 95 % of control | [5] 105 % of control

CCCOc1ccc(=S)[nH]n1
inactive: [7] 103 % of control | [11] 101 % of control | [8] 95 % of control | [13] 106 % of control | [9] 98 % of control | [15] 95 % of control

Cc1c(C)c(C)c(C(=O)C[n+]2ccccc2)c(C)c1C
inactive: dose: 12.5 mg/kg/injection, schedule: Q04DX002 (ip), vehicle: saline 104 % of control | dose: 25.0 mg/kg/injection, schedule: Q04DX002 (ip), vehicle: saline 96 % of control | dose: 50.0 mg/kg/injection, schedule: Q04DX002 (ip), vehicle: saline 107 % of control
